Laboratory results reported in PMC6223132 (Journal of controlled release : official journal of the …, 2018).
Values after ≈ are worked out from the molar mass of the structure shown.

Legend:
[1] = test system: aerosolized F. novicida U112; format: in vivo, C57Bl/6 mice; conditions: n=8
[2] = test system: Francisella tularensis; conditions: cited from earlier work
[3] = In vivo pharmacokinetics and biodistribution of drugamer-released ciprofloxacin; conditions: single dose 20 mg/kg intratracheal, over 2 h

O=C(O)c1cn(C2CC2)c2cc(N3CCNCC3)c(F)cc2c1=O [free ciprofloxacin, ciprofloxacin]
survival rate [1]: 0% | MIC [2]: 0.03 µg/mL (≈ 0.0905 µM) | elimination from the lungs [3]: rapid elimination
